In test [1] the target is T1, LCMV NP-exo (Lymphocytic choriomeningitis virus (strain Armstrong), UniProt P09992).
T1 construct: gene N

Test [2] deals with T2, MOPV NP-exo (Mammarenavirus mopeiaense, UniProt P19239).
T2 construct: gene N
The settings on record: 5 mM MnCl2, pH 8.0, 310 K, 5 min, 0.25 µM enzyme, 1.5 µM HP4 RNA; Mn2+-dependent; acts by metal-ion chelation.

T2 sequence (P19239 365-570 limits assumed): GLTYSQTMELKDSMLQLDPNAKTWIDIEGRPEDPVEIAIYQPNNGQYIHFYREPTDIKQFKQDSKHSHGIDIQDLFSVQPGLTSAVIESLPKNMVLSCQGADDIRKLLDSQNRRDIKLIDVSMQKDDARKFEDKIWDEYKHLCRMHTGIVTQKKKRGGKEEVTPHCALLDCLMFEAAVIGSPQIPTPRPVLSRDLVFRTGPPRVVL
T1 sequence (P09992 357-558 limits assumed): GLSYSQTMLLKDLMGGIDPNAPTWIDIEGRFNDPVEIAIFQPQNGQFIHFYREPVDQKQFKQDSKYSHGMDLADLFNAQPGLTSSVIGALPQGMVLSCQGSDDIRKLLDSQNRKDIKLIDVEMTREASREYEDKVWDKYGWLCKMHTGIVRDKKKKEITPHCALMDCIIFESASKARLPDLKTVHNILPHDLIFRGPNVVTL

What is called IC50 is the concentration at which inhibition is half-maximal. A low value points to higher potency. As to alendronate, the IC50 stood at 68.6 ± 4.2 µM in test [1] and 65.9 ± 1.7 µM in test [2].

The values are drawn from PMC9252148 (IUCrJ, 2022).
